Here are results for 13 compounds from patent US7037909B2, “Tetracyclic compounds as c-Met inhibitors” (Sugen, Inc., priority 2003, dated 2006).

Like-named read-outs stand apart in the source and are kept apart here.

The assay concerns the target T1, c-MET (Homo sapiens, UniProt P08581).
T1 construct: Purified GST fusion protein containing the Met kinase domain, Sugen, Inc
In words: MET Transphosphorylation Assay (ELISA, poly(Glu,Tyr) 4:1 substrate). It is filed as biochemical. The procedure: MET Transphosphorylation Assay
This assay is used to measure phosphotyrosine levels on a poly(glutamic acid:tyrosine (4:1)) substrate as a means for identifying agonists/antagonists of met transphosphorylation of the substrate.
• 1. […] PBS, Gibco Catalog #450-1300EB • 4. 50 mM HEPES • 5. […] Purified GST fusion protein containing the Met kinase domain, Sugen, Inc. • 7. TBST Buffer. • 8. 10% aqueous (MilliQue H2O) DMSO. • 9. […] 2× Kinase Dilution Buffer: for 100 ml, mix 10 mL 1M HEPES at pH 7.5 with 0.4 mL 5% BSA/PBS, 0.2 mL 0.1M sodium orthovanadate and 1 mL 5M sodium chloride in 88.4 mL dH2O. • 11. 4× ATP Reaction Mixture: for 10 mL, mix 0.4 mL 1M manganese chloride and 0.02 mL 0.1M ATP in 9.56 mL dH2O. • 12. 4× Negative Controls Mixture: for 10 mL, mix 0.4 mL 1M manganese chloride in 9.6 mL dH2O. • 13. […] 500 mM EDTA. • 15. Antibody Dilution Buffer: for 100 mL, mix 10 mL 5% BSA/PBS, 0.5 mL 5% Carnation Instant Milk® in PBS and 0.1 mL 0.1M sodium orthovanadate in 88.4 mL TBST. • 16. Rabbit polyclonal antophosphotyrosine antibody, Sugen, Inc. • 17. Goat anti-rabbit horseradish peroxidase conjugated antibody, Biosource, Inc. • 18. ABTS Solution: for 1 L, mix 19.21 g citric acid, 35.49 g Na2HPO4 and 500 mg ABTS with sufficient dH2O to make 1 L. • 19. ABTS/H2O2: mix 15 mL ABST solution with 2 μL H2O2 five minutes before use. • 20. 0.2M HCl Procedure: • 1. Coat ELISA plates with 2 μg Poly(Glu-Tyr) in 100 μL PBS, store overnight at 4° C. • 2. Block plate with 150 μL of 5% BSA/PBS for 60 min. • 3. Wash plate twice with PBS, once with 50 mM Hepes buffer pH 7.4. • 4. Add 50 μl of the diluted kinase to all wells. (Purified kinase is diluted with Kinase Dilution Buffer. Final concentration should be 10 ng/well.) • 5. Add 25 μL of the test compound (in 4% DMSO) or DMSO alone (4% in dH2O) for controls to plate. • 6. Incubate the kinase/compound mixture for 15 minutes. • 7. Add 25 μL of 40 mM MnCl2 to the negative control wells. • 8. Add 25 μL ATP/MnCl2 mixture to the all other wells (except the negative controls). Incubate for 5 min. • 9. Add 25 μL 500 mM EDTA to stop reaction. • 10. Wash plate 3× with TBST. • 11. Add 100 μL rabbit polyclonal anti-Ptyr diluted 1:10,000 in Antibody Dilution Buffer to each well. Incubate, with shaking, at room temperature for one hour. • 12. Wash plate 3× with TBST. • 13. Dilute Biosource HRP conjugated anti-rabbit antibody 1: 6,000 in Antibody Dilution buffer. Add 100 μL per well and incubate at room temperature, with shaking, for one hour. • 14. Wash plate 1× with PBS. • 15. Add 100 μl of ABTS/H2O2 solution to each well. • 16. If necessary, stop the development reaction with the addition of 100 μl of 0.2M HCl per well. • 17. […]

The mark [1] stands for this setting: purified GST fusion protein containing the Met kinase domain, poly(glu, tyr) 4:1 substrate, read-out: c-MET IC50.

T1 sequence (P08581 1078-1345 limits assumed): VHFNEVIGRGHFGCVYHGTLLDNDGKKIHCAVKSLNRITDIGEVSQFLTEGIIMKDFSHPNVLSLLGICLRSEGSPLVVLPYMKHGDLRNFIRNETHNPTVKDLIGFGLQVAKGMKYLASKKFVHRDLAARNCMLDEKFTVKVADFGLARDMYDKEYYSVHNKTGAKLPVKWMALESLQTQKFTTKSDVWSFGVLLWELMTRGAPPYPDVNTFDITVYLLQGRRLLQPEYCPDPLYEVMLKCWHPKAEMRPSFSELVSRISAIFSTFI

On to `Oc1ccc(Cc2nnc3nc4[nH]c5ccccc5c4nn23)cc1` [Example 17, 4-(9H-1,2,3a,4,9,10-Hexaaza-cyclopenta[b]fluoren-3-ylmethyl)-phenol], for which the IC50 under setting [1] worked out at 18 nM.
Same read-out and setting: the value for `Oc1ccc(Cc2nnc3nc4[nH]c5c(Cl)ccc(Cl)c5c4nn23)cc1` [Example 18, 4-(5,8-Dichloro-9H-1,2,3a,4,9,10-hexaaza-cyclopenta[b]fluoren-3-ylmethyl)-phenol] was 36 nM.
`COc1ccc2[nH]c3nc4nnc(Cc5ccc(O)cc5)n4nc3c2c1Cl` [Example 19, 4-(5-Chloro-6-methoxy-9H-1,2,3a,4,9,10-hexaaza-cyclopenta[b]fluoren-3-ylmethyl)-phenol] yielded an IC50 of 12 nM.
In the case of `COc1cc(Cl)c2[nH]c3nc4nnc(Cc5ccc(O)cc5)n4nc3c2c1Cl` [Example 20, 4-(5,8-Dichloro-6-methoxy-9H-1,2,3a,4,9,10-hexaaza-cyclopenta[b]fluoren-3-ylmethyl)-phenol], the IC50 under setting [1] stood at 46 nM.
Turning to `Oc1ccc(Cc2nnc3nc4[nH]c5cccc(Cl)c5c4nn23)cc1` [Example 21, 4-(5-Chloro-9H-1,2,3a,4,9,10-hexaaza-cyclopenta[b]fluoren-3-ylmethyl)-phenol], the IC50 under setting [1] came to 10 nM.
With `Oc1ccc(Cc2nnc3nc4[nH]c5c(Cl)cccc5c4nn23)cc1` [Example 22, 4-(8-Chloro-9H-1,2,3a,4,9,10-hexaaza-cyclopenta[b]fluoren-3-ylmethyl)-phenol], under setting [1], the IC50 is 35 nM.
Regarding `Oc1ccc(Cc2nnc3nc4[nH]c5c(Cl)cc(Cl)c(Cl)c5c4nn23)cc1` [Example 23, 4-(5,6,8-Trichloro-9H-1,2,3a,4,9,10-hexaaza-cyclopenta[b]fluoren-3-ylmethyl)-phenol], the IC50 under setting [1] turned out to be 460 nM.
In the case of `Cc1ccc(C)c2c1[nH]c1nc3nnc(Cc4ccc(O)cc4)n3nc12` [Example 24, 4-(5,8-Dimethyl-9H-1,2,3a,4,9,10-hexaaza-cyclopenta[b]fluoren-3-ylmethyl)-phenol, dihydrate], under setting [1], the IC50 turned out to be 22 nM.
Regarding `Cc1cc(C)c2[nH]c3nc4nnc(Cc5ccc(O)cc5)n4nc3c2c1` [Example 25, 4-(6,8-Dimethyl-9H-1,2,3a,4,9,10-hexaaza-cyclopenta[b]fluoren-3-ylmethyl)-phenol], the IC50 under setting [1] is 55 nM.
For `Cc1cc(Cl)cc2c1[nH]c1nc3nnc(Cc4ccc(O)cc4)n3nc12` [Example 26, 4-(6-Chloro-8-methyl-9H-1,2,3a,4,9,10-hexaaza-cyclopenta[b]fluoren-3-ylmethyl)-phenol], the IC50 under setting [1] was determined as 25 nM.
As for `N[C@H]1CCN(C(=O)c2ccc3[nH]c4nc5nnc(Cc6ccc(F)cc6)n5nc4c3c2Cl)C1` [Example 34, [(3S)-3-Amino-pyrrolidin-1-yl]-[5-chloro-3-(4-fluoro-benzyl)-9H-1,2,3a,4,9,10-hexaaza-cyclopenta[b]fluoren-6-yl]-methanone], under setting [1], the IC50 amounted to 42 nM.
In the case of `Cc1cc(OCCN2CCOCC2)c(C)c2c1[nH]c1nc3nnc(Cc4ccc(O)cc4)n3nc12` [Example 35, 4-[5,8-Dimethyl-6-(2-morpholin-4-yl-ethoxy)-9H-1,2,3a,4,9,10-hexaaza-cyclopenta[b]fluoren-3-ylmethyl]-phenol], under setting [1], the IC50 is 28 nM.
On to `Cc1cc(OCCN2CCOCC2)c(C)c2c1[nH]c1nc3nnc(Cc4ccc(F)cc4)n3nc12` [Example 36, 3-(4-Fluoro-benzyl)-5,8-dimethyl-6-(2-morpholin-4-yl-ethoxy)-9H-1,2,3a,4,9,10-hexaaza-cyclopenta[b]fluorine], for which, under setting [1], the 50% inhibitory concentration (IC50) worked out at 560 nM.
